One substance from article PMC5640650, “NatD promotes lung cancer progression by preventing histone H4 serine phosphorylation to activate Slug expression” (Nature Communications, 2017) can be followed below.

This data set deals with H1299 cells. Nature of the data set: qPCR and western blot of EMT and proliferation genes, H1299 cells. The format is cell-based, human. The source says: Fig. 4 Silencing NatD suppresses cancer cell EMT by downregulating Slug. a Representative phase contrast images of Scr and NatD-KD H1299 cells treated with TGF-β1. Data are representative of three independent experiments. Scale bar, 100 μm. b Quantitative real-time PCR analysis of mRNA levels of indicated key EMT-related genes in Scr and NatD-KD H1299 cells normalized to GAPDH in the absence or presence of TGF-β1. Results are shown as mean ± s.d. of three independent experiments. Two-tailed Student’s t-test was used. **P < 0.01 or *P < 0.05 compared with the indicated control. c Western blot analysis of indicated protein levels in Scr and NatD-KD H1299 cells in the absence or presence of TGF-β1. GAPDH served as a loading control. Data are representative of three independent experiments. d Immunofluorescence analysis of Scr and NatD-KD H1299 cells in the absence or presence of TGF-β1 stained for E-cadherin and N-cadherin. Data are representative of three independent experiments. Scale bar, 20 μm. Migration (e, top) and invasion (f, top) of Scr cells, NatD-KD cells, and NatD-KD cells with enforced Slug expression (NatD-KD + Slug). (bottom panels) Cells were counted in at least four random microscope fields (×100 magnification) for the corresponding assays; migration and invasion are expressed as a percentage of control. Results are shown as mean ± s.d. of three independent experiments. Two-tailed Student’s t-test was used. **P < 0.01 compared with the indicated control. g Quantitative real-time PCR analysis of the mRNA levels of NatD and indicated key EMT-related genes (normalized to GAPDH) in Scr cells, NatD-KD cells, and NatD-KD + Slug cells. Results are shown as mean ± s.d. of three independent experiments. Two-tailed Student’s t-test was used. **P < 0.01 or *P < 0.05 compared with Scr or indicated control. h Western blot analysis of indicated protein levels in Scr cells, NatD-KD cells, and NatD-KD + Slug cells. GAPDH served as a loading control. Data are representative of three independent blots. i Pearson correlation scatter plot of the H score of Slug and NatD in human lung carcinoma (n = 147); r = 0.6672, P < 0.0001
Cellular proteins were extracted by RIPA lysis buffer at high salt concentration (420 mM NaCl), and western blot analysis was performed in accordance with standard protocols. Scans of enhanced chemiluminescence (ECL) films showing uncropped blots are presented in Supplementary Fig. 10. The following antibodies were used for western blotting: NatD (Abcam; ab106408, 1:1000), GAPDH (MBL International; M171-3, 1:5000), Vimentin (BD Biosciences; 550513, 1:1000), E-cadherin (BD Biosciencs; 610181, 1:1000), N-cadherin (Abcam; ab76057, 1:1000), Slug (Abcam; ab27568, 1:500), Zeb1 (ABclonal; A5600, 1:1000), Zeb2 (Abcam; ab138222, 1:500), Twist1 (ABclonal; A7314, 1:1000), Snail (Santa Cruz Biotechnology; sc-271977, 1:500), Histone H4 (PTM Biolabs; PTM-1004, 1:2000), Histone H3(Genscript; A01502, 1:1000), H4K5ac (Millipore; CS204381, 1:1000), H4K8ac (Millipore; CS204357, 1:1000), H4K12ac (Millipore; 06-1352, 1:1000), H4R3me2a (Active Motif; 39705, 1:1000), H4R3me2s (Abcam; ab5823, 1:1000), H4S1ph (Abcam; ab14723, 1:1000), CK2α (Abcam; ab70774, 1:2000), Lamin A/C (Genscript; A01455, 1:2000), and Hsp70 (Genscript; A01236, 1:1000). Peptide pulldown assays were performed according to standard protocols, [44]. Briefly, we coupled streptavidin beads to 2 μg C-terminal biotin-tagged 31-mer N-terminal peptides of histone H4 and to acetylated H4 (Nt-ac-H4), as well as to C-terminal biotin-tagged 20-mer N-terminal peptides of non-acetylated histone H3. The resulting streptavidin-coupled peptides were incubated with H1299 cellular extracts prepared with high salt extraction (420 mM NaCl). We eluted specifically bound protein from stringently washed beads, separated the samples by SDS-PAGE, and visualized proteins by western blot with anti-CK2α antibody. […]

For the substance “NatD-KD2: Human NatD shRNA KD2: 5′-GGTTGAATGTCTCCATTGA-3′, lentiviral (shRNA lentiviral)”, where the note is “basal, knockdown vs Scr”, the “expression of E-cadherin” value is “increased the expression”; the “expression of N-cadherin and Vimentin” value was “reduced the expression”; the “expression of Slug” value is “significantly repressed”; the “expression of Twist1, Snail, Zeb1, or Zeb2” value was “not changed”. Further, where the note is “presence of TGF-β1 relative to basal”, the “changes of E-cadherin, N-cadherin, Vimentin and Slug expression with TGF-β1” value is reported as “blocked changes of expression levels”. Besides, the “expression of proliferation- and cell cycle-related genes (except CCND2)” value (qPCR, vs Scr) is “did not affect”.
